Reference: patent US11192863B2, “Antiviral compounds and methods” (Biotron Limited, priority 2003, dated 2021)
Entries after “also recorded” stand apart in the source; their conditions may differ. Read-outs that look alike come from different tables or passages of the source.

Assays:
[1] = system: HIV; type: cell-based; conditions: for At least 1x log reduction seen in p24 assay?: Table 19b, yes/no
[2] = target: SARS E protein ion channel (Severe acute respiratory syndrome coronavirus, UniProt P59637); type: biochemical, SARS-CoV
[3] = target: SARS-CoV E protein (Severe acute respiratory syndrome coronavirus, UniProt P59637); type: cell-based
[4] = system: human coronavirus OC43; test: microbe, parasite or virus in culture; type: cell-based; conditions: Betacoronavirus 1, OC43, MRC5, 120 h, MRC-5 cells, 5 days post infection
[5] = system: porcine respiratory coronavirus (PRCV) strain AR310; test: PRCV plaque assay in ST cells; type: cell-based; conditions: Alphacoronavirus 1; PRCV plaques in ST cells
[6] = system: bovine coronavirus (BCV); test: BCV plaque assay in MDBK cells; type: cell-based; conditions: Betacoronavirus 1; BCV plaques in MDBK cells
[7] = system: EAV (strain Bucyrus); test: EAV plaque reduction assay in BHK-21 cells; type: cell-based; conditions: Equine arteritis virus; EAV plaques in BHK-21 cells
Method: To determine the antiviral activity of compounds against EAV replication (strain Bucyrus; ATCC VR-796), an assay measuring reduction in the number of plaques formed in monolayers of EAV infected BHK-21 cells (ATCC CCL-10) was developed: […] Plates were subsequently incubated at 37° C. […] Plaques were counted in all wells and the percentage reduction in plaque number compared to solvent control was calculated. Measurements were performed in duplicate to quadruplicate wells.

[8] = target: Dengue virus M protein C-terminal peptide (Dengue virus type 1, UniProt P33478); test: Dengue virus M protein C-terminal peptide ion channel in lipid bilayers; type: biochemical; conditions: final concentration of HMA 100 μM in cis chamber
Method: The dengue virus M protein C-terminal peptide (DMVC) was dissolved in 2,2,2-trifluorethanol (TFE) at 0.05 mg/ml to 1 mg/ml. […] Channel activity was seen within 15-30 min.
Solutions of 50 mM HMA were prepared by first making a 500 mM solution in DMSO. This solution was further diluted to 50 mM HMA using 0.1 M HCl. 2 μl of the 50 mM HMA was added to the cis chamber after channel activity was seen. The cis chamber contained 1 ml of solution making the final concentration of HMA 100 μM.

[9] = target: Vpu protein (Human immunodeficiency virus type 1 group M subtype B, UniProt P05919); conditions: for Vpu Inhibition (score/# of times tested): halo of growth score between zero and six, XL1-blue E. coli with pPL-Vpu, no adenine, 37° C.
[10] = system: MHV (strain MHV-A59); conditions: L929 cells
[11] = target: 229E-CoV E-protein (Human coronavirus 229E, UniProt P19741); test: Bacterial bio-assay for 229E-CoV E-protein; conditions: halo of growth score; E. coli expressing E protein at 37° C.
[12] = system: SARS-CoV (Hong Kong strain); type: cell-based, SARS coronavirus; conditions: for Titre (% control): 48 hours; for Average TCID50 (×10^6): 48 hours post infection
[13] = target: 229E E protein ion channel (Human coronavirus 229E, UniProt P19741); test: 229E E protein ion channel in planar lipid bilayers; type: biochemical; conditions: 100 μM added to the cis chamber; FIG. 10
Method: The 229E E synthetic peptide was dissolved in 2,2,2-trifluorethanol (TFE) at 0.05 mg/ml to 1 mg/ml. […] Ionic currents, indicating channel activity in the bilayer, were typically detected within 15-30 min. After channels were detected the holding potential across the bilayer was varied between −100 mV and +100 mV to characterise the size and polarity of current flow and enable the reversal potential to be determined.
To test compounds for their ability to block or otherwise inhibit the ion channel formed by 229E E protein, small aliquots of solutions containing the compounds were added to the aqueous solutions bathing planar lipids in which the peptide channel activity had been reconstituted and the effect of the compound addition on the ionic currents was recorded and measured.
Compound stock solutions were typically prepared at 500 mM in DMSO. This solution was further diluted to 50 mM, or lower concentration in 50% DMSO/50% methanol and 2 μl of the appropriately diluted compound was added to the cis and/or trans chambers to yield the desired final concentration.

[14] = system: Dengue 1 strain Hawaii; test: Dengue cytoproliferation assay in LLC-MK2 cells (Alamar Blue); type: cell-based, Dengue virus; conditions: 7 days
[15] = Table 19a, rank among 12 compounds, 1 = highest score

| SMILES | At least 1x log reduction seen in p24 assay? [1] | SARS E protein Inhibition (score/# of times tested) [3] | inhibition at 2.5 µM [4] [%] | EC50 [5] [µM] | EC50 [6] [µM] | Bacterial assay rank order [9, 15] | Bacterial assay rank order ([9]; Table 19b) | Vpu Bacterial score ([9]; Table 19b) | Vpu Inhibition (score/# of times tested) [9] | Percent reduction in Plaque number/# experiments ([10]; 1 uM) | Percent reduction in Plaque number/# experiments ([10]; 10 uM) | Percent reduction in Plaque number/# experiments ([10]; 20 uM) | 229E E protein Inhibition (score) [11] [score] | further results |
| --- | --- | --- | --- | --- | --- | --- | --- | --- | --- | --- | --- | --- | --- | --- |
| NC(N)=NC(=O)c1nc(Cl)c(N2CCCCCC2)nc1N [5-(N,N-hexamethylene)amiloride] | no | 1.2/3 score | 30 | 0.06 | 9 | 10 | 10 | 1.9 | 1.9/31 score | 13/2% | 89/1% | 84/2% | 1.9 | Percent of Positive Control ([1]; Drug Conc. 0.625 μM): 30%; Percent of Positive Control ([1]; Drug Conc. 1.25 μM): 19%; Percent of Positive Control ([1]; Drug Conc. 2.5 μM): 50%; Percent of Positive Control ([1]; Drug Conc. 5 μM): 21%; Percent of Positive Control ([1]; Drug Conc. 10 μM): 6%; % Reduction of average current by 100 μM [2]: 91 ± 7%; IC50 [7]: 7.5 µM; ion channel activity of the Dengue virus M protein C-terminal peptide (in words) [8]: Inhibits Ion Channel Activity; bacterial growth around site of drug application (FIG. 5) ([9]; 3 μl drop, minimal medium lacking adenine, 37° C. 48 hr): halo of bacterial growth |
| NC(N)=NC(=O)/C=C/c1ccccc1 [cinnamoylguanidine] | yes | 0.69/3 score | 57 | 0.08 | 42 | 4 | 4 | 3.0 | 2.96/12 score | 52/7% | 88/8% | 97/8% | 1.3 | E protein ion channel activity (in words) [2]: inhibited; also recorded: significantly reduced; SARS E protein N-terminal peptide channel (in words) [2]: blocked; channels formed by full-length E protein (in words) [2]: blocked; reduction of average current across the bilayer [2]: about 4 fold; average current across the bilayer (in words) ([2]; 100 μM): reduced to baseline; decrease in virus titre ([12]; 10 uM): approximately 80%; Titre (% control) ([12]; Compound Concentration 2 uM): 82 % control; Average TCID50 (×10^6) ([12]; Compound Concentration 2 uM): 4.4 ×10^6; Titre (% control) ([12]; Compound Concentration 10 uM): 24 % control; Average TCID50 (×10^6) ([12]; Compound Concentration 10 uM): 1.3 ×10^6; current flow through the 229E E ion channel (in words) [13]: greatly reduced current flow; Antiviral Percent of Negative Control ([14]; Drug Conc. 0.625 μM): 76.6%; Antiviral Percent of Negative Control ([14]; Drug Conc. 1.25 μM): 72.6%; Antiviral Percent of Negative Control ([14]; Drug Conc. 2.5 μM): 58.3%; Antiviral Percent of Negative Control ([14]; Drug Conc. 5 μM): 38.6%; Antiviral Percent of Negative Control ([14]; Drug Conc. 10 μM): 17.1% |
